In ChEMBL document CHEMBL3414492, “Enhancing the cellular anti-proliferation activity of pyridazinones as c-met inhibitors using docking analysis” (Eur J Med Chem, 2015):
Values belong to the compound of their own block, whether it stands above or below them. The source made the active and inactive calls. No cut-off for these calls is given here.

Experiments:
[1] = Inhibition of cell proliferation of human EBC1 cells after 72 hrs by SRB assay; conditions: EBC-1, 72 h
[2] = molecular target: T1, Hepatocyte growth factor receptor (Homo sapiens, UniProt P08581); assay: Inhibition of recombinant c-Met (unknown origin) at 10 uM using poly (Glu,Tyr)4:1 substrate incubated for 60 mins by ELISA method
EBC-1 [3] = assay: Inhibition of cell proliferation of human EBC1 cells at 10 uM after 72 hrs by SRB assay; assay type: functional
EBC-1 [4] = conditions: Homo sapiens, 1 uM
Description: Inhibition of cell proliferation of human EBC1 cells at 1 uM after 72 hrs by SRB assay

[5] = Inhibition of cell proliferation of human MKN45 cells after 72 hrs by SRB assay; conditions: MKN-45, 72 h
SNU1 = assay: Inhibition of cell proliferation of human SNU1 cells after 72 hrs by SRB assay; conditions: SNU1, 72 h
[6] = Inhibition of cell proliferation of human SNU5 cells after 72 hrs by SRB assay; conditions: SNU-5, 72 h
NCI-H661 = assay: Inhibition of cell proliferation of human NCI-H661 cells after 72 hrs by SRB assay; conditions: NCI-H661, 72 h
[7] = molecular target: T1, Hepatocyte growth factor receptor; assay: Inhibition of recombinant c-Met (unknown origin) using poly (Glu,Tyr)4:1 substrate incubated for 60 mins by ELISA method

SMILES: O=C(Nc1cccc(Cn2nc(-n3ccc4ccc(F)cc43)ccc2=O)c1)OCCCCN1CCOCC1
- IC50 [1]: ≤ 1000 nM

SMILES: CN(C)CCCCCOC(=O)Nc1cccc(Cn2nc(-n3ccc4ccc(F)cc43)ccc2=O)c1
- IC50 [1]: ≤ 100 nM

SMILES: CN1CCN(CCCCCOC(=O)Nc2cccc(Cn3nc(-n4ccc5ccc(F)cc54)ccc3=O)c2)CC1
- IC50 [1]: ≤ 1000 nM

- inhibition [2]: 55.5%
SMILES: Cc1ccc(Nc2ccc(=O)n(Cc3cccc(NC(=O)OCCCCN(C)C)c3)n2)cc1
- inhibition (EBC-1 [3]): inactive

SMILES: CN(C)CCCCOC(=O)Nc1cccc(Cn2nc(Nc3ccccc3)ccc2=O)c1
- IC50 [1]: > 10000 nM
- inhibition (EBC-1 [3]): inactive

SMILES: COc1cnc(-c2cccc(Cn3nc(-n4ccc5ccc(F)cc54)ccc3=O)c2)nc1
- inhibition (EBC-1 [4]): inactive
- IC50 [1]: > 1000 nM

SMILES: CN1CCN(CCCCOC(=O)Nc2cccc(Cn3nc(-n4ccc5ccc(F)cc54)ccc3=O)c2)CC1
- IC50 [1]: ≤ 100 nM

SMILES: CN(C)CCCCOC(=O)Nc1cccc(Cn2nc(Nc3cc(F)cc(F)c3)ccc2=O)c1
- inhibition (EBC-1 [3]): inactive

SMILES: COCCOc1ccc2c(OCCn3nc(-n4ccc5ccc(F)cc54)ccc3=O)ccnc2c1
- IC50 [1]: 21.1 nM

SMILES: O=C(Nc1cccc(Cn2nc(-n3ccc4ccc(F)cc43)ccc2=O)c1)OCCCCn1cccn1
- IC50 [1]: ≤ 1000 nM

SMILES: COCCCOc1cnc(-c2cccc(Cn3nc(-n4ccc5ccc(F)cc54)ccc3=O)c2)nc1
- IC50 [1]: 272 nM

SMILES: CN(C)CCCCOC(=O)Nc1cccc(Cn2nc(Nc3cccc(F)c3)ccc2=O)c1
- inhibition (EBC-1 [3]): inactive

SMILES: COC(=O)CCCCOC(=O)Nc1cccc(Cn2nc(-n3ccc4ccc(F)cc43)ccc2=O)c1
- IC50 [1]: > 10000 nM

SMILES: CN(C)CCCOC(=O)Nc1cccc(Cn2nc(-n3ccc4ccc(F)cc43)ccc2=O)c1
- IC50 [1]: ≤ 1000 nM

SMILES: CN(C)CCCCOC(=O)Nc1cccc(Cn2nc(Nc3cccc(Cl)c3)ccc2=O)c1
- inhibition (EBC-1 [3]): inactive

SMILES: CN(C)CCCCOC(=O)Nc1cccc(Cn2nc(Nc3ccc(C(F)(F)F)cc3)ccc2=O)c1
- inhibition (EBC-1 [3]): inactive

- IC50 (SNU1): 3900 nM
- IC50 (NCI-H661): 1600 nM
SMILES: CN1CCN(CCCOC(=O)Nc2cccc(Cn3nc(-n4ccc5ccc(F)cc54)ccc3=O)c2)CC1
- IC50 [5]: 700 nM
- IC50 [1]: ≤ 100 nM
- IC50 [6]: 1200 nM

- IC50 [7]: > 10000 nM
SMILES: Cc1ccccc1Nc1ccc(=O)n(Cc2ccccc2NC(=O)OCCCCN(C)C)n1
